From ChEMBL document CHEMBL4257449, “New N-(2-phenyl-4-oxo-1,3-thiazolidin-3-yl)-1,2-benzothiazole-3-carboxamides and acetamides as antimicrobial agents” (2017)
In brackets after ≈: the same amount, converted by molar mass.

What was measured:
[1] = tested on: Aspergillus versicolor; assay: Antifungal activity against Aspergillus versicolor ATCC 11730 after 72 hrs by serial dilution method; format: functional; details: ATCC 11730, 72 h
[2] = tested on: Talaromyces funiculosus; assay: Antifungal activity against Penicillium funiculosum ATCC 36839 after 72 hrs by serial dilution method; format: functional; details: ATCC 36839, 72 h
[3] = tested on: Trichoderma viride; assay: Antifungal activity against Trichoderma viride IAM 5061 after 72 hrs by serial dilution method; format: functional; details: IAM 5061, 72 h
[4] = tested on: Talaromyces funiculosus; assay: Fungicidal activity against Penicillium funiculosum ATCC 36839 incubated for 72 hrs followed by serial sub-cultivation for 72 hrs and measured after 72 hrs by serial dilution method; format: functional
[5] = tested on: Pseudomonas aeruginosa; assay: Bactericidal activity against Pseudomonas aeruginosa ATCC 27853 incubated for 24 hrs followed by serial sub-cultivation and measured after 24 hrs by microdilution method; format: functional
[6] = tested on: Salmonella typhimurium; assay: Bactericidal activity against Salmonella typhimurium ATCC 13311 incubated for 24 hrs followed by serial sub-cultivation and measured after 24 hrs by microdilution method; format: functional, Salmonella enterica subsp. enterica serovar Typhimurium
[7] = tested on: Micrococcus flavus; assay: Antibacterial activity against Micrococcus flavus ATCC 10240 after 24 hrs by microdilution method; format: functional; details: ATCC 10240, 24 h
[8] = tested on: Listeria monocytogenes; assay: Bactericidal activity against Listeria monocytogenes NCTC 7973 incubated for 24 hrs followed by serial sub-cultivation and measured after 24 hrs by microdilution method; format: functional
[9] = tested on: Staphylococcus aureus; assay: Antibacterial activity against Staphylococcus aureus ATCC 6538 after 24 hrs by microdilution method; format: functional; details: ATCC 6538, 24 h
[10] = tested on: Aspergillus ochraceus; assay: Fungicidal activity against Aspergillus ochraceus ATCC 12066 incubated for 72 hrs followed by serial sub-cultivation for 72 hrs and measured after 72 hrs by serial dilution method; format: functional
[11] = tested on: Enterobacter cloacae; assay: Antibacterial activity against Enterobacter cloacae after 24 hrs by microdilution method; format: functional
[12] = tested on: Staphylococcus aureus; assay: Bactericidal activity against Staphylococcus aureus ATCC 6538 incubated for 24 hrs followed by serial sub-cultivation and measured after 24 hrs by microdilution method; format: functional
[13] = tested on: Micrococcus flavus; assay: Bactericidal activity against Micrococcus flavus ATCC 10240 incubated for 24 hrs followed by serial sub-cultivation and measured after 24 hrs by microdilution method; format: functional
[14] = tested on: Escherichia coli; assay: Bactericidal activity against Escherichia coli ATCC 35210 incubated for 24 hrs followed by serial sub-cultivation and measured after 24 hrs by microdilution method; format: functional
[15] = tested on: Aspergillus fumigatus; assay: Fungicidal activity against Aspergillus fumigatus incubated for 72 hrs followed by serial sub-cultivation for 72 hrs and measured after 72 hrs by serial dilution method; format: functional
[16] = tested on: Penicillium ochrochloron; assay: Fungicidal activity against Penicillium ochrochloron ATCC 9112 incubated for 72 hrs followed by serial sub-cultivation for 72 hrs and measured after 72 hrs by serial dilution method; format: functional
[17] = tested on: Bacillus cereus; assay: Antibacterial activity against Bacillus cereus after 24 hrs by microdilution method; format: functional
[18] = tested on: Pseudomonas aeruginosa; assay: Antibacterial activity against Pseudomonas aeruginosa ATCC 27853 after 24 hrs by microdilution method; format: functional; details: ATCC 27853, 24 h
[19] = tested on: Aspergillus ochraceus; assay: Antifungal activity against Aspergillus ochraceus ATCC 12066 after 72 hrs by serial dilution method; format: functional; details: ATCC 12066, 72 h
[20] = tested on: Trichoderma viride; assay: Fungicidal activity against Trichoderma viride IAM 5061 incubated for 72 hrs followed by serial sub-cultivation for 72 hrs and measured after 72 hrs by serial dilution method; format: functional
[21] = tested on: Candida albicans; assay: Fungicidal activity against Candida albicans incubated for 72 hrs followed by serial sub-cultivation for 72 hrs and measured after 72 hrs by serial dilution method; format: functional
[22] = tested on: Aspergillus fumigatus; assay: Antifungal activity against Aspergillus fumigatus after 72 hrs by serial dilution method; format: functional
[23] = tested on: Candida albicans; assay: Antifungal activity against Candida albicans after 72 hrs by serial dilution method; format: functional
[24] = tested on: Aspergillus niger; assay: Antifungal activity against Aspergillus niger ATCC 6275 after 72 hrs by serial dilution method; format: functional; details: ATCC 6275, 72 h
[25] = tested on: Enterobacter cloacae; assay: Bactericidal activity against Enterobacter cloacae incubated for 24 hrs followed by serial sub-cultivation and measured after 24 hrs by microdilution method; format: functional
[26] = tested on: Penicillium ochrochloron; assay: Antifungal activity against Penicillium ochrochloron ATCC 9112 after 72 hrs by serial dilution method; format: functional; details: ATCC 9112, 72 h
[27] = tested on: Listeria monocytogenes; assay: Antibacterial activity against Listeria monocytogenes NCTC 7973 after 24 hrs by microdilution method; format: functional; details: NCTC 7973, 24 h
[28] = tested on: Aspergillus niger; assay: Fungicidal activity against Aspergillus niger ATCC 6275 incubated for 72 hrs followed by serial sub-cultivation for 72 hrs and measured after 72 hrs by serial dilution method; format: functional
[29] = tested on: Bacillus cereus; assay: Bactericidal activity against Bacillus cereus incubated for 24 hrs followed by serial sub-cultivation and measured after 24 hrs by microdilution method; format: functional
[30] = tested on: Escherichia coli; assay: Antibacterial activity against Escherichia coli ATCC 35210 after 24 hrs by microdilution method; format: functional; details: ATCC 35210, 24 h
[31] = tested on: Salmonella typhimurium; assay: Antibacterial activity against Salmonella typhimurium ATCC 13311 after 24 hrs by microdilution method; format: functional, Salmonella enterica subsp. enterica serovar Typhimurium; details: Salmonella enterica, ATCC 13311, 24 h
[32] = tested on: Aspergillus versicolor; assay: Fungicidal activity against Aspergillus versicolor ATCC 11730 incubated for 72 hrs followed by serial sub-cultivation for 72 hrs and measured after 72 hrs by serial dilution method; format: functional

O=C(NN1C(=O)CSC1c1ccc(Cl)cc1)c1nsc2ccccc12 (centres undefined)
MIC [1]: 102 µM (≈ 39.8 µg/mL) | MIC [2]: 102 µM (≈ 39.8 µg/mL) | MIC [3]: 25.6 µM (≈ 9.98 µg/mL) | MFC99.5 [4]: 20.5 ×10⁻² umol/ml | MBC99.5 [5]: 76.8 ×10⁻² umol/ml | MBC99.5 [6]: 115.2 ×10⁻² umol/ml | MIC [7]: 384 µM (≈ 150 µg/mL) | MBC99.5 [8]: 76.8 ×10⁻² umol/ml | MIC [9]: 205 µM (≈ 79.9 µg/mL) | MFC99.5 [10]: 20.5 ×10⁻² umol/ml | MIC [11]: 789 µM (≈ 308 µg/mL) | MBC99.5 [12]: 38.4 ×10⁻² umol/ml | MBC99.5 [13]: 76.8 ×10⁻² umol/ml | MBC99.5 [14]: 76.8 ×10⁻² umol/ml | MFC99.5 [15]: 38.4 ×10⁻² umol/ml | MFC99.5 [16]: 20.5 ×10⁻² umol/ml | MIC [17]: 205 µM (≈ 79.9 µg/mL) | MIC [18]: 205 µM (≈ 79.9 µg/mL) | MIC [19]: 102 µM (≈ 39.8 µg/mL) | MFC99.5 [20]: 5.12 ×10⁻² umol/ml | MFC99.5 [21]: 20.5 ×10⁻² umol/ml | MIC [22]: 205 µM (≈ 79.9 µg/mL) | MIC [23]: 102 µM (≈ 39.8 µg/mL) | MIC [24]: 102 µM (≈ 39.8 µg/mL) | MBC99.5 [25]: 115.2 ×10⁻² umol/ml | MIC [26]: 102 µM (≈ 39.8 µg/mL) | MIC [27]: 589 µM (≈ 230 µg/mL) | MFC99.5 [28]: 20.5 ×10⁻² umol/ml | MBC99.5 [29]: 38.4 ×10⁻² umol/ml | MIC [30]: 589 µM (≈ 230 µg/mL) | MIC [31]: 768 µM (≈ 299 µg/mL) | MFC99.5 [32]: 20.5 ×10⁻² umol/ml

O=C(NN1C(=O)CSC1c1c(F)cccc1Cl)c1nsc2ccccc12 (centres undefined)
MIC [1]: 184 µM (≈ 75 µg/mL) | MIC [2]: 368 µM (≈ 150 µg/mL) | MIC [3]: 138 µM (≈ 56.3 µg/mL) | MFC99.5 [4]: 73.5 ×10⁻² umol/ml | MBC99.5 [5]: 36.8 ×10⁻² umol/ml | MBC99.5 [6]: 36.8 ×10⁻² umol/ml | MIC [7]: 270 µM (≈ 110 µg/mL) | MBC99.5 [8]: 36.8 ×10⁻² umol/ml | MIC [9]: 196 µM (≈ 79.9 µg/mL) | MFC99.5 [10]: 73.5 ×10⁻² umol/ml | MIC [11]: 368 µM (≈ 150 µg/mL) | MBC99.5 [12]: 36.8 ×10⁻² umol/ml | MBC99.5 [13]: 36.8 ×10⁻² umol/ml | MBC99.5 [14]: 36.8 ×10⁻² umol/ml | MFC99.5 [15]: 73.5 ×10⁻² umol/ml | MFC99.5 [16]: 85.8 ×10⁻² umol/ml | MIC [17]: 196 µM (≈ 79.9 µg/mL) | MIC [18]: 196 µM (≈ 79.9 µg/mL) | MIC [19]: 368 µM (≈ 150 µg/mL) | MFC99.5 [20]: 18.4 ×10⁻² umol/ml | MFC99.5 [21]: 85.8 ×10⁻² umol/ml | MIC [22]: 368 µM (≈ 150 µg/mL) | MIC [23]: 735 µM (≈ 300 µg/mL) | MIC [24]: 368 µM (≈ 150 µg/mL) | MBC99.5 [25]: 73.5 ×10⁻² umol/ml | MIC [26]: 368 µM (≈ 150 µg/mL) | MIC [27]: 270 µM (≈ 110 µg/mL) | MFC99.5 [28]: 73.5 ×10⁻² umol/ml | MBC99.5 [29]: 36.8 ×10⁻² umol/ml | MIC [30]: 270 µM (≈ 110 µg/mL) | MIC [31]: 196 µM (≈ 79.9 µg/mL) | MFC99.5 [32]: 73.5 ×10⁻² umol/ml
